Measurements from paper PMC10635480, “An engineered thermally tolerant apo-cytochrome scaffold for metal-less incorporation of heme derivative” (PLOS ONE, 2023).

Columns and labels:
[1] = molecular target: T1, rC552 C14A (cytochrome c552, apo-form) (Thermus thermophilus, UniProt Q5SME3, C31A); test: time-dependent UV-Vis reconstitution; assay type: binding; details: equimolar 5 uM, 25 °C
T1 construct: gene cycA; recombinant, E. coli BL21(DE3), pET-rC552 C14A; no tag mentioned; heme-free apo-form isolated by butyl-Sepharose
T1 sequence (Q5SME3 18-148 C31A): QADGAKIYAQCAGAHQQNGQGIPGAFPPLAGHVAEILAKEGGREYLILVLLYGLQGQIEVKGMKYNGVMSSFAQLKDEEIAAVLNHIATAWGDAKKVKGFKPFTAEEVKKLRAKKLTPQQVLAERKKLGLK

[2] = molecular target: T2, rC552 C14A (cytochrome c552, apo-form) (Thermus thermophilus, UniProt Q5SME3, C31A/M86F); assay type: binding
T2 construct: gene cycA; recombinant, E. coli BL21(DE3), pET-rC552 C14A; no tag mentioned; heme-free apo-form isolated by butyl-Sepharose
T2 sequence (Q5SME3 18-148 C31A/M86F): as the sequence (Q5SME3 18-148 C31A) above, with M69F counted along it

Tm of reconstituted protein (not dTm) [2]: 58 °C
Compound: C=CC1=C(C)c2cc3[nH]c(cc4nc(cc5[nH]c(cc1n2)c(C)c5CCC(=O)O)C(CCC(=O)O)=C4C)c(C)c3C=C [protoporphyrin IX (metal-free)]
time-dependent UV-Vis reconstitution [1]: Time-dependent UV–Vis spectra show a rather slow reconstitution process while mixing equal concentrations
